Data reported in ChEMBL document CHEMBL1201862, “PubChem BioAssay data set” (2004).
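96-well plates; 48 h exposure; 5 concentrations. Endpoints by linear interpolation between flanking doses. Not reached: highest tested concentration assigned. GI50: concentration for 50% inhibition of growth.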 The source made the active and inactive calls. No stated cut-off is given here; in the data, active = GI50 up to about 1.1 µM and inactive = higher.

What was measured:
Assay in all cases: DTP human tumour cell line panel, 48 h
Malme-3M = system: Malme-3M
HCT-116 = system: HCT-116
HT-29 = system: HT-29
NCI-H226 = system: NCI-H226
RXF 393 = system: RXF 393
EKVX = system: EKVX
SN12C = system: SN12C
OVCAR-8 = system: OVCAR-8
TK-10 = system: TK-10
MDA-MB-435 = system: MDA-MB-435
SF-539 = system: SF-539
SK-MEL-28 = system: SK-MEL-28
A549 = system: A549
SK-MEL-5 = system: SK-MEL-5
SF-295 = system: SF-295
OVCAR-5 = system: OVCAR-5
LOX IMVI = system: LOX IMVI
HCC 2998 = system: HCC 2998
786-0 = system: 786-0
NCI-H23 = system: NCI-H23

Measured: GI50

N#CC(c1ccc(O)cc1)N1CCN(C(C#N)c2ccc(O)cc2)CC1 (centres undefined)
inactive: Malme-3M > 100 µM | HCT-116 > 100 µM | HT-29 > 100 µM | NCI-H226 34.3 µM | RXF 393 33.9 µM | EKVX 35.7 µM | SN12C > 87.1 µM | OVCAR-8 24.3 µM | TK-10 > 100 µM | MDA-MB-435 > 100 µM | SF-539 34.7 µM | SK-MEL-28 67.3 µM | A549 99.3 µM | SK-MEL-5 > 100 µM | SF-295 38.3 µM | OVCAR-5 > 100 µM | LOX IMVI > 100 µM | HCC 2998 > 100 µM | 786-0 > 64.1 µM | NCI-H23 > 100 µM

CC1=C(C)CC2C(=O)N(c3cc(C(C)(C)C)ccc3C(C)(C)C)C(=O)C2C1 (centres undefined)
inactive: Malme-3M 4.55 µM | HCT-116 50 µM | HT-29 > 100 µM | NCI-H226 > 100 µM | RXF 393 23.8 µM | EKVX > 100 µM | SN12C > 100 µM | OVCAR-8 > 100 µM | TK-10 66.1 µM | MDA-MB-435 > 100 µM | SF-539 78.3 µM | SK-MEL-28 > 100 µM | A549 69.5 µM | SK-MEL-5 > 100 µM | SF-295 48.2 µM | OVCAR-5 > 100 µM | LOX IMVI > 100 µM | HCC 2998 52.6 µM | 786-0 64.9 µM | NCI-H23 94.4 µM

N#Cc1nc(C#N)n(S(=O)(=O)c2ccccc2)c1NS(=O)(=O)c1ccccc1
inactive: Malme-3M > 100 µM | HCT-116 > 100 µM | HT-29 > 100 µM | NCI-H226 > 100 µM | RXF 393 > 100 µM | EKVX > 53.2 µM | SN12C > 100 µM | OVCAR-8 > 100 µM | TK-10 > 100 µM | MDA-MB-435 > 100 µM | SF-539 > 100 µM | SK-MEL-28 > 100 µM | A549 > 100 µM | SK-MEL-5 > 100 µM | SF-295 > 100 µM | OVCAR-5 > 100 µM | LOX IMVI > 100 µM | HCC 2998 > 100 µM | 786-0 > 100 µM | NCI-H23 > 100 µM

Cc1ccc(-c2nc(N/N=C/c3ccc(O)cc3)c3ccccc3n2)cc1
inactive: Malme-3M 13.8 µM | HCT-116 14.1 µM | HT-29 27.7 µM | NCI-H226 21.5 µM | RXF 393 21 µM | EKVX 3.98 µM | SN12C 8.2 µM | OVCAR-8 22.9 µM | TK-10 24.3 µM | MDA-MB-435 10.8 µM | SF-539 27.3 µM | SK-MEL-28 17.8 µM | A549 6.14 µM | SK-MEL-5 3.51 µM | SF-295 17.9 µM | OVCAR-5 20.3 µM | LOX IMVI 13.2 µM | HCC 2998 14.1 µM | 786-0 22.8 µM | NCI-H23 7.31 µM

CC1(C)CC(=O)c2[nH]c3ccccc3c2CC(=O)NCCc2cn1cn2
inactive: Malme-3M > 100 µM | HCT-116 > 100 µM | HT-29 > 100 µM | NCI-H226 > 100 µM | RXF 393 73.8 µM | EKVX > 100 µM | SN12C > 100 µM | OVCAR-8 > 100 µM | TK-10 > 100 µM | MDA-MB-435 > 100 µM | SF-539 > 100 µM | SK-MEL-28 > 100 µM | A549 > 100 µM | SK-MEL-5 > 100 µM | SF-295 82.8 µM | OVCAR-5 > 100 µM | LOX IMVI > 100 µM | HCC 2998 > 100 µM | 786-0 18.6 µM | NCI-H23 > 100 µM

CCN(CC)C1Oc2cc3c(cc2C(c2ccc(OC)cc2)C1C)OCO3 (centres undefined)
inactive: Malme-3M 18.3 µM | HCT-116 15.8 µM | HT-29 18.7 µM | NCI-H226 23 µM | RXF 393 18.9 µM | EKVX 18.3 µM | SN12C 21.7 µM | OVCAR-8 19.5 µM | TK-10 18.7 µM | MDA-MB-435 18.9 µM | SF-539 20.2 µM | SK-MEL-28 20.4 µM | A549 22.6 µM | SK-MEL-5 17.3 µM | SF-295 21.7 µM | OVCAR-5 26.2 µM | LOX IMVI 16.1 µM | HCC 2998 19 µM | 786-0 21.7 µM | NCI-H23 21.8 µM

CC1(C)C[C@H](O)[C@H](O)[C@]23C(=O)O[C@H](O)[C@H]2C(C=O)=CC[C@@H]13
inactive: Malme-3M > 100 µM | HCT-116 > 100 µM | HT-29 > 100 µM | NCI-H226 > 100 µM | RXF 393 > 100 µM | EKVX > 100 µM | SN12C > 100 µM | OVCAR-8 > 100 µM | TK-10 > 100 µM | MDA-MB-435 > 100 µM | SF-539 > 100 µM | SK-MEL-28 > 100 µM | A549 > 100 µM | SK-MEL-5 > 100 µM | SF-295 > 100 µM | LOX IMVI > 100 µM | HCC 2998 > 100 µM | 786-0 > 100 µM | NCI-H23 > 100 µM

COC(=O)c1ccc(/C=N/c2cc(C)nn2-c2ccccc2)cc1
inactive: Malme-3M 70.8 µM | HCT-116 29 µM | HT-29 22.2 µM | NCI-H226 89.5 µM | RXF 393 > 100 µM | EKVX 75.7 µM | SN12C 48.3 µM | OVCAR-8 73.8 µM | TK-10 2.12 µM | MDA-MB-435 8.65 µM | SF-539 > 100 µM | SK-MEL-28 82.2 µM | A549 76.6 µM | SK-MEL-5 19.4 µM | SF-295 35.8 µM | OVCAR-5 > 100 µM | LOX IMVI 35.9 µM | HCC 2998 2.79 µM | 786-0 67 µM | NCI-H23 48.5 µM

Cc1cccc(/C=N/NC(=S)NC2CCCCC2)n1
inactive: Malme-3M 16.2 µM | HCT-116 4.02 µM | HT-29 3.27 µM | NCI-H226 15.7 µM | RXF 393 18.5 µM | EKVX 22.4 µM | SN12C 27.4 µM | OVCAR-8 19.4 µM | TK-10 58.5 µM | MDA-MB-435 33.7 µM | SF-539 27.7 µM | SK-MEL-28 46.7 µM | A549 28.9 µM | SK-MEL-5 29.9 µM | SF-295 29 µM | OVCAR-5 15.2 µM | LOX IMVI 14 µM | HCC 2998 20.7 µM | 786-0 20 µM | NCI-H23 32.4 µM

CC(C)[C@H]1NC(=O)[C@H]2N=C(S[C@H]2C)[C@@H]2CCCN2C(=O)[C@H](Cc2ccccc2)NC(=O)[C@@H]2CSC(=N2)[C@@H](Cc2ccccc2)NC(=O)[C@@H]2CSC1=N2
inactive: Malme-3M > 50 µM | HCT-116 30.9 µM | HT-29 25.8 µM | NCI-H226 21 µM | RXF 393 15.9 µM | EKVX 27.5 µM | SN12C 40.2 µM | OVCAR-8 33.6 µM | TK-10 21.7 µM | MDA-MB-435 13.7 µM | SF-539 22.3 µM | SK-MEL-28 14.1 µM | A549 17.3 µM | SK-MEL-5 24.4 µM | SF-295 30.3 µM | OVCAR-5 > 50 µM | LOX IMVI 29.7 µM | HCC 2998 10.7 µM | 786-0 33.7 µM | NCI-H23 40.3 µM
